Test results: patent US20100178243A1, “Novel method of stabilizing diagnostic and therapeutic compounds in a cationic carrier system” (MediGene AG, priority 2002, published 2010)

Tested on: A-375 Melanoma
Assay: Therapeutic efficacy of LipoCam in A-375 melanoma of nude mice
Format: in vivo
Conditions: iv, three times a week for three weeks, equitoxic doses; s.c. A-375 tumors; FIG. 11
Protocol: NMRI-nude mice were purchased from Elevage Janvier and housed in isolated ventilated cages under save environmental conditions (SPF facility, 22° C., 30-70% humidity, 12 h light/dark cycle) with food and water ad libitum. Experimental design was reviewed and approved by local government.
Tumor cells (A-375 human melanoma cell line, ATCC Nr.: CRL-1619) were grown as described in the data sheet supplied by ATCC. Tumor cells (5×10^6 in PBS) were inoculated s.c. in the right dorsal flank of mice in a volume of 50 μl on day 0.
Mice were assigned to the experimental groups (8 animals per cage), housed and handled (including monitoring of the body weight gain) at least five days before tumor inoculation (=day −6 to 0). […] Equitoxic doses of the compounds were determined in separate experiments, where toxicity was evaluated based on haematological parameters, body weight and animal clinical observations. […]
Animals were clinically monitored during the whole experiment and for at least one week after treatment was finished. […] The tumor dimensions were measured by calliper and the tumor size was calculated according to the following formula: V=πLW^2/6 (L=greatest length, W=width of perpendicular axis). […] The number of red and white blood cells and platelets were determined using an automated cell counter (Abbott Cell Dyn 3500).

## CC[C@@](O)(C(=O)[O-])c1cc2n(c(=O)c1CO)Cc1cc3ccccc3nc1-2.[Na+] [CPT-Na-Carboxylate]
  anti-tumor effect (in words): only a retardation as compared to the control group
